Reference: paper PMC10287695, “Non-covalent inhibitors of thioredoxin glutathione reductase with schistosomicidal activity in vivo” (Nature Communications, 2023)
“And” between values parts separate entries of the source, which are not always exact repeats. Equal entries are not always repeated.

Columns and labels:
TGR [1] = target: T1, TGR (Schistosoma mansoni, UniProt Q962Y6); assay: Thermal shift assay (TSA); assay type: binding; set-up: key to Avg. Tm / Tm, replicate 1-3: Tm in °C, from a 25–95 °C melt curve
T1 construct: made in house
T1 sequence (Q962Y6 1-598): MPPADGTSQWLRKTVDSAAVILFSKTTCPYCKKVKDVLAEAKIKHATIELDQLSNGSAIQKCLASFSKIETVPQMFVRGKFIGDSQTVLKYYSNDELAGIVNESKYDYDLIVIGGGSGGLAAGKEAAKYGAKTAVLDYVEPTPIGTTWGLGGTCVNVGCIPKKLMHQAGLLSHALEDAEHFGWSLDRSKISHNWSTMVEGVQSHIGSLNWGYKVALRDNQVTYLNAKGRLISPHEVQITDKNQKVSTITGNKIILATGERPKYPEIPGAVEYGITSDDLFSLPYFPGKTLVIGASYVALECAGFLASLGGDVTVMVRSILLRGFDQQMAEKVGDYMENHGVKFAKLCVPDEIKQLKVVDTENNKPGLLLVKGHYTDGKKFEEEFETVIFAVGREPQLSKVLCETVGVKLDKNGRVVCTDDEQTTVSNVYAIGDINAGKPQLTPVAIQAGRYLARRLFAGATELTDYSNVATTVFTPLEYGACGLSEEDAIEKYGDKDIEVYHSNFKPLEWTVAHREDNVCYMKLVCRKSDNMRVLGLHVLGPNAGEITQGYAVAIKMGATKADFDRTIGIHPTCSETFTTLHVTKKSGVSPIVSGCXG
Experimental: Samples were prepared by using a final concentration of 0.25 mg/ml TGR diluted in TGR reaction buffer to the desired volume. To evaluate reduced TGR, 500 µM NADPH was added. […] After the preincubation period, 20 µL samples were pipetted into a BioRad un-skirted PCR 96 well plate and sealed with MicroAmp^TM Optical Adhesive film. The plate was then centrifuged for 5 min at 1000 × g. TSA was carried out using a BioRad CFX Connect qPCR instrument with a melt curve setting of 25 − 95 °C, in increments of 0.5 °C/10 seconds. The SYBR green channel was used to detect fluorescence as the wavelength of flavin fluorescence overlaps with that of SYBR green. BioRad CFX Maestro 5.2 was used to analyze TSA data.

[2] = Cytotoxicity in mammalian cells (Cell Titer Glo); assay type: cell-based; settings: African green monkey, Vero cells
Experimental: Following overnight incubation, formulated DMSO-compound stock solutions were diluted with DMEM at <1% DMSO final concentrations. […] Vero cells treated similarly with different concentrations of PZQ, MZM and AF (Cayman Chemicals) were used as positive controls.

TGR [3] = target: T1, TGR; assay: Time dependence of inhibition; assay type: biochemical; set-up: avg % inhib, 0.5 hr / avg % inhib, 1 hr / avg % inhib, 2 hr / avg % inhib, 3 hr / avg % inhib, 6 hr / avg % inhib, 24 hr: tested at 50 µM; settings: panel d Time Dependence
Experimental: TGR was incubated at room temperature (up to 6 h) and at 4 °C for 6 to 24 h with 50 µM inhibitor and 100 µM NADPH for the indicated times. Then DTNB (3 mM) and NADPH (100 µM) were added, and the reaction was monitored at A412 for 5 min. The assay was done in triplicate.

S. japonicum adult worms = assay: Schistosomicidal activity ex vivo, S. japonicum adult worms; assay type: cell-based
Experimental: Three-week old, female Swiss-Webster mice obtained from the Charles River were housed in the Comparative Research Center of Rush University Medical Center. Mice were infected by percutaneous tail exposure to about 200 S. mansoni or 50 S. japonicum cercaria for adult worms and about 1000 cercaria for juvenile S. mansoni worms through natural transdermal penetration of the cercariae for 1 h[81].
DMSO formulated compounds were diluted with phenol red free M199 medium or RPMI medium for NTS or juvenile and adult worms, respectively, at <1% DMSO final concentrations. NTS, juvenile and adult worms from overnight cultures were tested against compounds in triplicate. Controls were treated with DMSO alone or 5 µM AF as a positive control in appropriate medium. […] Schistosome viabilities in the presence of the compounds were assessed using this formula: % Viability = Averages of Test / Averages of DMSO Control x 100.

Cc1oc(-c2ccc3c(c2)OCO3)nc1CN[C@@H]1C[C@@H]2C[C@H]([C@H]1C)C2(C)C [Compound 1]
Avg. Tm (TGR [1]; TGR + 100 µM compound): 73.67 | Avg. Tm, + 500 µM NADPH (TGR [1]; TGR + 100 µM compound + 500 µM NADPH): 73.5 | Tm, replicate 1-3, + 500 µM NADPH (TGR [1]; TGR + 100 µM compound + 500 µM NADPH, single replicates, in °C (unit assumed)): 73.5 | Tm, replicate 1-3 (TGR [1]; TGR + 100 µM compound, single replicates): 73.5 (2×) and 74 | effect on Tm of oxidized TGR (TGR [1]; without NADPH): Neither fast 6-9 nor slow TGR inhibitors 1, 3, 5 affected the Tm | viability at 24 h, 5 µM ([2]; Conc. 5 µM): 94.7% | viability at 24 h, 10 µM ([2]; Conc. 10 µM): 94.6% | viability at 24 h, 25 µM ([2]; Conc. 25 µM): 94.3% | viability at 24 h, 35 µM ([2]; Conc. 35 µM): 83.3% | viability at 24 h, 50 µM ([2]; Conc. 50 µM): 72.5% | rate, 0.5 hr (TGR [3]; 0.5 hr): 0.0552 and 0.05671 and 0.05782 | avg % inhib, 0.5 hr (TGR [3]; 0.5 hr, average): -1.077% | % inhib, 0.5 hr (TGR [3]; 0.5 hr, replicates): 0.01811% and -0.5318% and -2.718% | rate, 1 hr (TGR [3]; 1 hr): 0.04988 and 0.05076 and 0.05122 | avg % inhib, 1 hr (TGR [3]; 1 hr, average): 1.283% | % inhib, 1 hr (TGR [3]; 1 hr, replicates): 2.919% and -0.8544% and 1.783% | rate, 2 hr (TGR [3]; 2 hr): 0.046 and 0.04511 and 0.04817 | avg % inhib, 2 hr (TGR [3]; 2 hr, average): 0.9089% | % inhib, 2 hr (TGR [3]; 2 hr, replicates): -0.9879% and 3.652% and 0.06224% | rate, 3 hr (TGR [3]; 3 hr): 0.03818 and 0.03843 and 0.03937 | avg % inhib, 3 hr (TGR [3]; 3 hr, average): 4.332% | % inhib, 3 hr (TGR [3]; 3 hr, replicates): 4.359% and 4.498% and 4.139% | rate, 6 hr (TGR [3]; 6 hr): 0.02323 and 0.02106 and 0.02443 | avg % inhib, 6 hr (TGR [3]; 6 hr, average): 12.8202% | % inhib, 6 hr (TGR [3]; 6 hr, replicates): 11.8406% and 18.1182% and 8.502% | rate, 24 hr (TGR [3]; 24 hr): 0.0142 and 0.01351 and 0.01414 | avg % inhib, 24 hr (TGR [3]; 24 hr, average): 28.9728% | % inhib, 24 hr (TGR [3]; 24 hr, replicates): 24.2263% and 31.8365% and 30.8557% | LD50 ex vivo S. japonicum adult (S. japonicum adult worms; 48 h exposure): 19.6 ± 1.91 µM | viability at 5 µM (S. japonicum adult worms; Schistosoma japonicum, S. japonicum adult worms, 48 hr, Conc. 5 µM): 87.9% | viability at 15 µM (S. japonicum adult worms; Schistosoma japonicum, S. japonicum adult worms, 48 hr, Conc. 15 µM): 56.2% | viability at 30 µM (S. japonicum adult worms; Schistosoma japonicum, S. japonicum adult worms, 48 hr, Conc. 30 µM): 19.2%
